According to patent publication US12721349B2, “Method for promoting bacterial cell wall degradation” (KABUSHIKI KAISHA YAKULT HONSHA, priority 2019, dated 2026):
≈ marks a conversion by molar mass, not a printed value.

Key:
[1] = system: Lactobacillus casei YIT 9029; assay: Cell wall degradation of YIT 9029 by lysozyme and mutanolysin (recombinant) with added saccharide, turbidity OD615; format: cell-based; settings: saccharide 0.5 M, 37° C.; for cell wall degradation rate compared with the reaction in which no saccharide was added: up to 24 hours, FIG. 1; for cell wall degradation-promoting effect / cell wall degradation-promoting effect after 1 hour of the reaction: FIG. 4
Method: Lactobacillus casei YIT 9029 (hereinafter, referred to as YIT 9029) was used. Thirty microliters of the pre-cultured bacterial solution of about 2×10^9 CFU/mL cultured in the MRS Broth was inoculated in 30 mL of the MRS Broth prepared in the above (2) and then cultured at 37° C. for 24 hours. […] The bacteria were suspended in a 5 mM Tris-maleate buffer solution (manufactured by Sigma-Aldrich Co.) (pH 6.4) of the same volume as that of the original bacterial solution, and 100 μg of lysozyme from chicken egg white lyophilized powder (manufactured by Sigma-Aldrich Co., hereinafter, referred to as lysozyme), which is egg white lysozyme, and 100 U of mutanolysin (recombinant) (manufactured by A&A Biotechnology) were added per 1 mL of the suspension. The reaction solution was treated at 37° C. for 24 hours. In addition, in order to examine the influence of the addition of a saccharide on cell wall degradation reaction, the same reaction was performed using a Tris-maleate buffer solution containing D-glucose or L-rhamnose at a final concentration of 0.5 M instead of the Tris-maleate buffer solution. Each reaction was performed in triplicate. The turbidity (OD615) of the bacterial suspension at 615 nm (maximal absorption wavelength; measurement wavelength range: 575-660 nm) was measured over time using a spectrophotometer PiCOSCOPE PAS-110 (manufactured by Ushio Inc.), and the degradation rate was calculated by the following equation (1). The degradation rate was shown by the mean±standard deviation of triplicate. Degradation rate=1−(OD615 after reaction/OD615 before reaction) (1). (6) Result […] Each reaction was performed in triplicate. The same reaction as in Example 1 was performed except that D-arabinose, L-arabinose, D-lyxose, L-lyxose, D-xylose, L-xylose, D-ribose, L-ribose, D-fucose, L-fucose, D-mannose, L-mannose, D-galactose, or D-fructose was added as the saccharide, and the cell wall degradation-promoting effect of each saccharide was examined. Each reaction was performed in triplicate. […] Each reaction was performed in triplicate.

[2] = Solubility in water at room temperature; format: physicochemical; settings: read-out: upper limit of the solubility in water
[3] = system: Lactobacillus casei YIT 9029; assay: Cell wall degradation of YIT 9029 by lysozyme and mutanolysin (recombinant) with added saccharide, turbidity OD615; format: cell-based; settings: for difference between the promotion effects of the D-form and the L-form: 0.1 M to 1.5 M; for difference between the promotion effects of the D-form and the L-form / concentration dependence of the degradation rate: FIG. 6; for concentration dependence of the degradation rate: concentration range of 0.1 M and 1.0 M
[4] = system: Lactobacillus casei YIT 9029; assay: Cell wall degradation of YIT 9029 by mutanolysin (recombinant) alone with added saccharide, turbidity OD615; format: cell-based; settings: 37° C.; for degradation-promoting effect, mutanolysin alone: 0.5, 1.0 or 1.5 M, FIG. 5B
Method: The bacteria were suspended in a 5 mM Tris-maleate buffer solution (manufactured by Sigma-Aldrich Co.) (pH 6.4) of the same volume as that of the original bacterial solution, and 100 μg of lysozyme from chicken egg white lyophilized powder (manufactured by Sigma-Aldrich Co., hereinafter, referred to as lysozyme), which is egg white lysozyme, and 100 U of mutanolysin (recombinant) (manufactured by A&A Biotechnology) were added per 1 mL of the suspension. The reaction solution was treated at 37° C. for 24 hours. In addition, in order to examine the influence of the addition of a saccharide on cell wall degradation reaction, the same reaction was performed using a Tris-maleate buffer solution containing D-glucose or L-rhamnose at a final concentration of 0.5 M instead of the Tris-maleate buffer solution. Each reaction was performed in triplicate. The turbidity (OD615) of the bacterial suspension at 615 nm (maximal absorption wavelength; measurement wavelength range: 575-660 nm) was measured over time using a spectrophotometer PiCOSCOPE PAS-110 (manufactured by Ushio Inc.), and the degradation rate was calculated by the following equation (1). The degradation rate was shown by the mean±standard deviation of triplicate. Degradation rate=1−(OD615 after reaction/OD615 before reaction) (1). (6) Result It was expected from Examples 1 to 4 that a saccharide such as D-arabinose increases the activity of mutanolysin to promote the degradation of cell wall. However, since a possibility that the saccharide increases the activity of lysozyme that has been added together cannot be excluded, the degradation rate when YIT 9029 was treated with mutanolysin or lysozyme alone was examined using some saccharides. […] Each reaction was performed without replicates. […] Each reaction was performed in triplicate.

[5] = system: Lactobacillus casei YIT 9029; assay: Cell wall degradation of YIT 9029 by lysozyme alone with added saccharide, turbidity OD615; format: cell-based; settings: 1.5 M, 37° C., FIG. 5A
Method: The bacteria were suspended in a 5 mM Tris-maleate buffer solution (manufactured by Sigma-Aldrich Co.) (pH 6.4) of the same volume as that of the original bacterial solution, and 100 μg of lysozyme from chicken egg white lyophilized powder (manufactured by Sigma-Aldrich Co., hereinafter, referred to as lysozyme), which is egg white lysozyme, and 100 U of mutanolysin (recombinant) (manufactured by A&A Biotechnology) were added per 1 mL of the suspension. The reaction solution was treated at 37° C. for 24 hours. In addition, in order to examine the influence of the addition of a saccharide on cell wall degradation reaction, the same reaction was performed using a Tris-maleate buffer solution containing D-glucose or L-rhamnose at a final concentration of 0.5 M instead of the Tris-maleate buffer solution. Each reaction was performed in triplicate. The turbidity (OD615) of the bacterial suspension at 615 nm (maximal absorption wavelength; measurement wavelength range: 575-660 nm) was measured over time using a spectrophotometer PiCOSCOPE PAS-110 (manufactured by Ushio Inc.), and the degradation rate was calculated by the following equation (1). The degradation rate was shown by the mean±standard deviation of triplicate. Degradation rate=1−(OD615 after reaction/OD615 before reaction) (1). […]

[6] = system: Lactobacillus casei YIT 9029; assay: Cell wall degradation of YIT 9029 by lysozyme and mutanolysin from Streptomyces globisporus ATCC 21553 with added saccharide, turbidity OD615; format: cell-based; settings: 1.5 M, 37° C. or 50° C., mutanolysin from Streptomyces globisporus ATCC 21553, FIG. 3A
Method: The reaction solution was treated at 37° C. for 24 hours. In addition, in order to examine the influence of the addition of a saccharide on cell wall degradation reaction, the same […] buffer solution. Each reaction was performed in triplicate. The turbidity (OD615) of the bacterial suspension at 615 nm (maximal absorption wavelength; measurement wavelength range: 575-660 nm) was measured over time using a spectrophotometer PiCOSCOPE PAS-110 (manufactured by Ushio Inc.), and the degradation rate was calculated by the following equation (1). The degradation rate was shown by the mean±standard deviation of triplicate. Degradation rate=1−(OD615 after reaction/OD615 before reaction) (1). (6) Result […] Each reaction was performed without replicates.

SMILES: O=C[C@H](O)[C@@H](O)[C@H](O)[C@H](O)CO [D-glucose, reference compound]
- cell wall degradation rate compared with the reaction in which no saccharide was added [1]: decrease in cell wall degradation rate

SMILES: O=C[C@H](O)[C@H](O)[C@H](O)CO [D-ribose]
- cell wall degradation-promoting effect [1]: showed the cell wall degradation-promoting effect

SMILES: O=C[C@H](O)[C@@H](O)[C@@H](O)CO [L-arabinose]
- degradation rate after 1 hour of the reaction relative to the reaction in which no saccharide was added [1]: about 4 times
- cell wall degradation-promoting effect [1]: showed the cell wall degradation-promoting effect
- solubility [2]: ~1500 mM (≈ 225 mg/mL)
- difference between the promotion effects of the D-form and the L-form ([3]; 37° C. or 50° C.): no difference
- concentration dependence of the degradation rate [3]: concentration dependence was observed
- degradation-promoting effect, mutanolysin alone [4]: showed the degradation-promoting effect

SMILES: O=C[C@@H](O)[C@H](O)[C@@H](O)CO [L-xylose]
- cell wall degradation-promoting effect [1]: showed the cell wall degradation-promoting effect

SMILES: O=C[C@H](O)[C@H](O)[C@@H](O)[C@@H](O)CO [L-mannose]
- cell wall degradation-promoting effect [1]: showed the cell wall degradation-promoting effect
- degradation-promoting effect, mutanolysin alone [4]: showed the degradation-promoting effect

SMILES: O=C[C@H](O)[C@@H](O)[C@H](O)CO [D-xylose]
- cell wall degradation-promoting effect after 1 hour of the reaction [1]: showed the cell wall degradation-promoting effect

SMILES: O=C[C@H](O)[C@H](O)[C@@H](O)CO [L-lyxose]
- cell wall degradation-promoting effect [1]: showed the cell wall degradation-promoting effect

SMILES: O=C[C@@H](O)[C@H](O)[C@H](O)CO [D-arabinose]
- promotion of degradation, lysozyme alone [5]: did not show significant promotion of degradation
- degradation rate after 1 hour of the reaction relative to the reaction in which no saccharide was added [1]: about 4 times
- cell wall degradation-promoting effect [1]: showed the cell wall degradation-promoting effect
- solubility [2]: ~1500 mM (≈ 225 mg/mL)
- difference between the promotion effects of the D-form and the L-form ([3]; 37° C. or 50° C.): no difference
- promotion of degradation, mutanolysin and lysozyme in combination ([3]; 1.5 M, 37° C., FIG. 5A): promoted the degradation
- degradation rate after 1 hour ([3]; 1.5 M, 50° C., FIG. 7): 93%
- concentration dependence of the degradation rate [3]: concentration dependence was observed
- degradation rate at 50° C. compared with 37° C. ([3]; reaction for a short time, FIG. 7): higher
- promotion of degradation, mutanolysin alone ([4]; 1.5 M, FIG. 5A): promoted the degradation

SMILES: O=C[C@@H](O)[C@@H](O)[C@H](O)CO [D-lyxose]
- cell wall degradation-promoting effect [1]: showed the cell wall degradation-promoting effect

SMILES: C[C@H](O)[C@H](O)[C@@H](O)[C@@H](O)C=O [L-rhamnose]
- cell wall degradation rate compared with the reaction in which no saccharide was added [6]: increase in cell wall degradation rate
- cell wall degradation rate compared with the reaction in which no saccharide was added [1]: increase in cell wall degradation rate
- degradation rate with increasing concentrations of L-rhamnose ([3]; 0.5, 1.0, 1.5 M, 37° C. or 50° C., FIG. 2): increased with increasing concentrations
- degradation rate after 24 hours of the reaction ([3]; 1.5 M, 37° C.): 0.97
- cell wall degradation rate compared with the reaction in which no saccharide was added ([3]; 1.5 M, 37° C. or 50° C., mutanolysin (recombinant), FIG. 3B): increase in cell wall degradation rate
- degradation rate after 5 hours of the reaction ([3]; 1.5 M, 37° C., rate = 1-(OD615 after/OD615 before)): 0.83
- degradation rate after 24 hours of the reaction ([3]; 1.5 M, 50° C.): 0.87
- degradation rate after 1 hour of the reaction ([3]; 1.5 M, 50° C., rate = 1-(OD615 after/OD615 before)): 0.69
- degradation-promoting effect, mutanolysin alone [4]: showed the degradation-promoting effect

SMILES: O=C[C@@H](O)[C@@H](O)[C@@H](O)CO [L-ribose]
- cell wall degradation-promoting effect [1]: showed the cell wall degradation-promoting effect

SMILES: C[C@H](O)[C@@H](O)[C@@H](O)[C@H](O)C=O [L-fucose]
- degradation rate after 1 hour of the reaction relative to the reaction in which no saccharide was added [1]: about 3 times
- cell wall degradation-promoting effect [1]: showed the cell wall degradation-promoting effect
- degradation-promoting effect, mutanolysin alone [4]: showed the degradation-promoting effect

SMILES: O=C(CO)[C@@H](O)[C@H](O)[C@H](O)CO [D-fructose]
- cell wall degradation-promoting effect after 1 hour of the reaction [1]: showed the cell wall degradation-promoting effect
